From patent US7642245B2, “Antibacterial compounds having a (pyrrole carboxamide)-(benzamide)-(imidazole carboxamide) motif” (Oscient Pharmaceuticals Corporation, priority 2002, dated 2010)

How the values were obtained:
S. pneumoniae ATCC 49619 = assay: MIC, NCCLS broth microdilution; assay type: cell-based, Streptococcus pneumoniae; details: E = S. pneumoniae ATCC 49619
Summary of the method: (§1)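 MIC values come from microtiter-plate broth microdilution run to NCCLS standards (M7-A4, M11-A4, M27-T). For C. albicans ATCC 38247, the antifungal procedure of the 1995 Manual of Clinical Microbiology was used instead.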

[1] = system: M. catarrhalis (ATCC 25238); assay: MIC, NCCLS broth microdilution; assay type: cell-based, Moraxella (now Branhamella) catarrhalis; details: H = M. catarrhalis (ATCC 25238)
Summary of the method: (§2)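 Antibacterial MICs against B. cereus, methicillin-resistant S. aureus and M. catarrhalis were measured by the NCCLS reference broth microdilution method. Yeast testing applied the Manual of Clinical Microbiology antifungal protocol.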

C. albicans ATCC 38247 = assay: MIC, antifungal assay; assay type: cell-based, Candida albicans; details: F = C. albicans ATCC 38247
Summary of the method: as §2

E. faecalis ATCC 29212 = assay: MIC, NCCLS broth microdilution; assay type: cell-based, Enterococcus faecalis; details: C = E. faecalis ATCC 29212
Summary of the method: as §1

B. cereus ATCC 11778 = assay: MIC, NCCLS broth microdilution; assay type: cell-based, Bacillus cereus; details: D = B. cereus ATCC 11778
Summary of the method: as §2

S. aureus ATCC 27660 = assay: MIC, NCCLS broth microdilution; assay type: cell-based, Staphylococcus aureus; details: B = S. aureus ATCC 27660 (MRSA)
Summary of the method: as §2

S. aureus ATCC 13709 = assay: MIC, NCCLS broth microdilution; assay type: cell-based, Staphylococcus aureus; details: A = S. aureus ATCC 13709 (MSSA)
Summary of the method: as §1

E. coli ATCC 25922 = assay: MIC, NCCLS broth microdilution; assay type: cell-based, Escherichia coli; details: G = E. coli ATCC 25922
Summary of the method: as §1

[2] = system: Enterococcus faecalis ATCC 29212; assay: Disc diffusion of non-formulated compounds; assay type: cell-based; details: ATCC29212, non-formulated compound, 30 μg/disc, E. faecalis ATCC 29212 on TSA + 5% Sheep Blood, 6.3 mm disc = no inhibition zone, read-out: Zone Diameter (nearest whole mm)
Description: (§3) The diffusion assays on a compound of this invention were performed according to NCCLS Guidelines (Performance Standards for Antimicrobial Susceptibility Testing, M100-S12 vol. 22 and Performance Standards for Antimicrobial Disk Susceptibility Tests, M2-A7 vol. 20) with the following modifications: Generally, diffusion of the drug from the inoculation site (the disk or the well, as the case may be) through the agar creates a concentration gradient of the test compound. Bacterial growth is inhibited by the drug, creating a zone of inhibition. […] The activity of the compound was determined by measurement of the zone of inhibition surrounding the disk. The results are provided in Tables C, D, and E. The diffusion results of Table C measure the diffusion of free compound. The diffusion results of Tables D and E measure the diffusion of compound formulated into a cream.

[3] = system: Streptococcus pneumoniae ATCC 49619; assay: Disc diffusion of non-formulated compounds; assay type: cell-based; details: ATCC49619, non-formulated compound, 30 μg/disc, S. pneumoniae ATCC 49619 on TSA + 5% Sheep Blood, 6.3 mm disc = no inhibition zone, read-out: Zone Diameter (nearest whole mm)
Description: as §3

[4] = system: Staphylococcus aureus ATCC 13709; assay: Disc diffusion of non-formulated compounds; assay type: cell-based; details: ATCC13709, non-formulated compound, 30 μg/disc, S. aureus ATCC 13709 on TSA, 6.3 mm disc = no inhibition zone, read-out: Zone Diameter (nearest whole mm)
Description: as §3

SMILES	Minimum Inhibitory Concentration (MIC) (S. pneumoniae ATCC 49619)	Minimum Inhibitory Concentration (MIC) [1]	Minimum Inhibitory Concentration (MIC) (C. albicans ATCC 38247)	Minimum Inhibitory Concentration (MIC) (E. faecalis ATCC 29212)	Minimum Inhibitory Concentration (MIC) (B. cereus ATCC 11778)	Minimum Inhibitory Concentration (MIC) (S. aureus ATCC 27660)	Minimum Inhibitory Concentration (MIC) (S. aureus ATCC 13709)	Minimum Inhibitory Concentration (MIC) (E. coli ATCC 25922)	zone of inhibition at 30 µg/disc [2] [mm]	zone of inhibition at 30 µg/disc [3] [mm]	zone of inhibition at 30 µg/disc [4] [mm]
CCOC(=O)C1CCN(CCNC(=O)c2nc(NC(=O)c3ccc(NC(=O)c4cc(NC(=O)c5cc6ccccc6cn5)cn4C)cc3)cn2C)CC1 [Compound A-48]	+++ (MIC ≦ 4 μg/mL)	+++ (MIC ≦ 4 μg/mL)	>32 µg/mL	+++ (MIC ≦ 4 μg/mL)	+++ (MIC ≦ 4 μg/mL)	+++ (MIC ≦ 4 μg/mL)	+++ (MIC ≦ 4 μg/mL)	>32 µg/mL			
Cn1cc(NC(=O)c2cc3ccccc3cn2)cc1C(=O)Nc1ccc(C(=O)Nc2cn(C)c(C(=O)NCCN3CCC(OC(=O)CCN)CC3)n2)cc1 [Compound A-60]	+++ (MIC ≦ 4 μg/mL)	++ (4 < MIC < 12 μg/mL)	++ (4 < MIC < 12 μg/mL)	+++ (MIC ≦ 4 μg/mL)	+++ (MIC ≦ 4 μg/mL)	+++ (MIC ≦ 4 μg/mL)	+++ (MIC ≦ 4 μg/mL)	>32 µg/mL			
Cn1cc(NC(=O)c2cc3ccccc3cn2)cc1C(=O)Nc1ccc(C(=O)Nc2cn(C)c(C(=O)NCCN3CCN(CCO)CC3)n2)cc1 [Compound A-27]	+++ (MIC ≦ 4 μg/mL)	+++ (MIC ≦ 4 μg/mL)	>32 µg/mL	+++ (MIC ≦ 4 μg/mL)	+++ (MIC ≦ 4 μg/mL)	+++ (MIC ≦ 4 μg/mL)	+++ (MIC ≦ 4 μg/mL)	>32 µg/mL			
Cn1cc(NC(=O)c2cc3ccccc3cn2)cc1C(=O)Nc1ccc(C(=O)Nc2cn(C)c(C(=O)NCCN3CCC(OC(=O)CCN(CCO)CCO)CC3)n2)cc1 [Compound A-57]	+++ (MIC ≦ 4 μg/mL)	+++ (MIC ≦ 4 μg/mL)	>32 µg/mL	+++ (MIC ≦ 4 μg/mL)	+++ (MIC ≦ 4 μg/mL)	+++ (MIC ≦ 4 μg/mL)	+++ (MIC ≦ 4 μg/mL)	++ (4 < MIC < 12 μg/mL)			
Cn1cc(NC(=O)c2cc3ccccc3cn2)cc1C(=O)Nc1ccc(C(=O)Nc2cn(C)c(C(=O)NCCN3CCC(OC(=O)CNC(=O)C4OC(O)C(O)C(O)C4O)CC3)n2)cc1 (stereo not shown) [Compound A-74]	+++ (MIC ≦ 4 μg/mL)	>32 µg/mL	>32 µg/mL	+++ (MIC ≦ 4 μg/mL)	+++ (MIC ≦ 4 μg/mL)	+++ (MIC ≦ 4 μg/mL)	+++ (MIC ≦ 4 μg/mL)	>32 µg/mL			
COC1CCN(CCNC(=O)c2nc(NC(=O)c3ccc(NC(=O)c4cc(NC(=O)c5cc6ccccc6cn5)cn4C)cc3)cn2C)CC1 [Compound A-20]	+++ (MIC ≦ 4 μg/mL)	+++ (MIC ≦ 4 μg/mL)	+ (12 ≦ MIC ≦ 32 μg/mL)	+++ (MIC ≦ 4 μg/mL)	+++ (MIC ≦ 4 μg/mL)	+++ (MIC ≦ 4 μg/mL)	+++ (MIC ≦ 4 μg/mL)	+++ (MIC ≦ 4 μg/mL)			
CN[C@H](CC(C)C)C(=O)N[C@H]1C(=O)N[C@@H](CC(N)=O)C(=O)N[C@H]2C(=O)N[C@H]3C(=O)N[C@H](C(=O)N[C@H](C(=O)O)c4cc(O)cc(O)c4-c4cc3ccc4O)[C@H](O)c3ccc(c(Cl)c3)Oc3cc2cc(c3O[C@@H]2O[C@H](CO)[C@@H](O)[C@H](O)[C@H]2O[C@H]2C[C@](C)(N)[C@H](O)[C@H](C)O2)Oc2ccc(cc2Cl)[C@H]1O [Vancomycin]									15	19	15
CCOCCCNCCNC(=O)c1nc(NC(=O)c2ccc(NC(=O)c3cc(NC(=O)c4cc5ccccc5cn4)cn3C)cc2)cn1C [Compound A-31]	+++ (MIC ≦ 4 μg/mL)	>32 µg/mL	+ (12 ≦ MIC ≦ 32 μg/mL)	++ (4 < MIC < 12 μg/mL)	++ (4 < MIC < 12 μg/mL)	+++ (MIC ≦ 4 μg/mL)	+++ (MIC ≦ 4 μg/mL)	>32 µg/mL			
Cn1cc(NC(=O)c2cc3ccccc3cn2)cc1C(=O)Nc1ccc(C(=O)Nc2cn(C)c(C(=O)NCCN3CCCC3CO)n2)cc1 (stereo not shown) [Compound A-81]	+++ (MIC ≦ 4 μg/mL)	+++ (MIC ≦ 4 μg/mL)	>32 µg/mL	+++ (MIC ≦ 4 μg/mL)	+++ (MIC ≦ 4 μg/mL)	+++ (MIC ≦ 4 μg/mL)	+++ (MIC ≦ 4 μg/mL)	>32 µg/mL			
CCCNCCNC(=O)c1nc(NC(=O)c2ccc(NC(=O)c3cc(NC(=O)c4cc5ccccc5cn4)cn3C)cc2)cn1C [Compound A-37]	+++ (MIC ≦ 4 μg/mL)	+++ (MIC ≦ 4 μg/mL)	>32 µg/mL	+++ (MIC ≦ 4 μg/mL)	+++ (MIC ≦ 4 μg/mL)	+++ (MIC ≦ 4 μg/mL)	+++ (MIC ≦ 4 μg/mL)	+++ (MIC ≦ 4 μg/mL)			
Cn1cc(NC(=O)c2cc3ccccc3cn2)cc1C(=O)Nc1ccc(C(=O)Nc2cn(C)c(C(=O)NCCN3CCN(C(=O)CN)CC3)n2)cc1 [Compound A-65]	+++ (MIC ≦ 4 μg/mL)	+++ (MIC ≦ 4 μg/mL)	++ (4 < MIC < 12 μg/mL)	+++ (MIC ≦ 4 μg/mL)	+++ (MIC ≦ 4 μg/mL)	+++ (MIC ≦ 4 μg/mL)	+++ (MIC ≦ 4 μg/mL)	>32 µg/mL			
CCCCN1CCN(CCNC(=O)c2nc(NC(=O)c3ccc(NC(=O)c4cc(NC(=O)c5cc6ccccc6cn5)cn4C)cc3)cn2C)CC1 [Compound A-14]	+++ (MIC ≦ 4 μg/mL)	+++ (MIC ≦ 4 μg/mL)	>32 µg/mL	+++ (MIC ≦ 4 μg/mL)	+++ (MIC ≦ 4 μg/mL)	+++ (MIC ≦ 4 μg/mL)	+++ (MIC ≦ 4 μg/mL)	>32 µg/mL			
